Source: PMC12543283, “TastepepAI: An artificial intelligence platform for taste peptide de novo design” (PLOS Computational Biology, 2025)
Ends that are not written are not given here.

How the values were obtained:
[1] = tested on: human embryonic kidney cells (HEK293T)
[2] = tested on: human pancreatic ductal epithelial cells (HPNE)
Protocol: The cytotoxicity of 73 synthetic peptides was evaluated using four human cell lines: human pancreatic ductal epithelial cells (HPNE), human embryonic kidney cells (HEK293T), human umbilical vein endothelial cells (HUVEC), and human bronchial epithelial cells (BEAS-2B). When cell density reached 70% confluence, the complete culture medium was replaced with serum-free maintenance medium, and peptides were added at a final concentration of 100 μM for 36 h. Control groups received only serum-free maintenance medium without peptides. Cell proliferation was assessed using the CCK-8 assay kit (Solarbio, CA1210) according to the manufacturer’s instructions.

[3] = tested on: human bronchial epithelial cells (BEAS-2B)
[4] = Electronic tongue analysis (Taste-Sensing System SA 402B); parameters: unit not given here; conditions: reference solution 30 mM KCl + 0.3 mM tartaric acid as baseline, first measurement excluded; for Umami: sensor AAE; for Umami / Bitter / Sweet: detection threshold 0, room temperature; for Umami / Bitter / Sour / Salty: four replicates; for Sour: detection threshold -13, room temperature; for Salty: detection threshold -6, room temperature; for Sweet: measured five times
In short: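 Room-temperature electronic-tongue readings with five taste probes, calibrated against a reference of 30 mM KCl and 0.3 mM tartaric acid. Samples at 0.1 mg/mL and 1.0 mg/mL were measured four times, sweetness five times, and the first run was dropped. Detection cut-offs were sour −13, salty −6, others 0.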

[5] = tested on: human umbilical vein endothelial cells (HUVEC)

| Substance | Average cell viability, HEK293T [1] | Cell viability, HEK293T, Data1 [1] | Cell viability, HEK293T, Data2 [1] | Cell viability, HEK293T, Data3 [1] | Average cell viability, HPNE [2] | Cell viability, HPNE, Data1 [2] | Cell viability, HPNE, Data2 [2] | Cell viability, HPNE, Data3 [2] | Average cell viability, BEAS-2B [3] | Cell viability, BEAS-2B, Data1 [3] | Cell viability, BEAS-2B, Data2 [3] | Cell viability, BEAS-2B, Data3 [3] | Umami ([4]; peptide 0.1 mg/mL) | Umami ([4]; peptide 1 mg/mL) | Bitter ([4]; sensor C00, peptide 0.1 mg/mL) | Bitter ([4]; sensor C00, peptide 1 mg/mL) | Sour ([4]; sensor CA0, peptide 0.1 mg/mL) | Sour ([4]; sensor CA0, peptide 1 mg/mL) | Salty ([4]; sensor CT0, peptide 0.1 mg/mL) | Salty ([4]; sensor CT0, peptide 1 mg/mL) | also measured |
| --- | --- | --- | --- | --- | --- | --- | --- | --- | --- | --- | --- | --- | --- | --- | --- | --- | --- | --- | --- | --- | --- |
| LWGPVT [TaPep72] | 100.76 | 102.49 | 95.02 | 104.76 | 101.26 | 115.31 | 97.84 | 90.65 | 100.50 | 118.74 | 92.32 | 90.43 | 2.15 | -4.42 | 7.25 | 3.83 | -4.62 | 11.06 | -19.66 | 7.83 | Sweet ([4]; sensor GL1, peptide 0.1 mg/mL): 7.58; Sweet ([4]; sensor GL1, peptide 1 mg/mL): -5.31; Average cell viability, HUVEC [5]: 99.47; Cell viability, HUVEC, Data1 [5]: 107.29; Cell viability, HUVEC, Data2 [5]: 101.62; Cell viability, HUVEC, Data3 [5]: 89.49 |
| HIDELDE [TaPep22] | 98.23 | 106.09 | 94.35 | 94.26 | 95.67 | 103.83 | 84.66 | 98.54 | 111.67 | 106.78 | 113.26 | 114.96 | 2.56 | -3.68 | 6.91 | 3.37 | -5.65 | 9.43 | -22.87 | 7.21 | Sweet ([4]; sensor GL1, peptide 0.1 mg/mL): 7.18; Sweet ([4]; sensor GL1, peptide 1 mg/mL): -4.86; Average cell viability, HUVEC [5]: 101.94; Cell viability, HUVEC, Data1 [5]: 90.69; Cell viability, HUVEC, Data2 [5]: 106.97; Cell viability, HUVEC, Data3 [5]: 108.17 |
| NNDDEES [TaPep50] | 101.39 | 105.62 | 98.99 | 99.56 | 98.30 | 106.02 | 107.52 | 81.36 | 104.39 | 104.29 | 103.89 | 104.99 | 2.11 | -3.90 | 7.18 | 4.27 | -4.45 | 9.63 | -22.53 | 3.54 | Sweet ([4]; sensor GL1, peptide 0.1 mg/mL): 7.42; Sweet ([4]; sensor GL1, peptide 1 mg/mL): -3.07; Average cell viability, HUVEC [5]: 105.59; Cell viability, HUVEC, Data1 [5]: 101.94; Cell viability, HUVEC, Data2 [5]: 108.73; Cell viability, HUVEC, Data3 [5]: 106.09 |
| KNDESVD [TaPep48] | 103.91 | 103.15 | 102.59 | 105.99 | 102.66 | 87.85 | 109.32 | 110.82 | 98.21 | 105.18 | 91.23 | 98.21 | 1.19 | -4.97 | 7.92 | 4.06 | -2.20 | 12.29 | -19.00 | 9.10 | Sweet ([4]; sensor GL1, peptide 0.1 mg/mL): 5.24; Sweet ([4]; sensor GL1, peptide 1 mg/mL): -3.88; Average cell viability, HUVEC [5]: 107.58; Cell viability, HUVEC, Data1 [5]: 110.24; Cell viability, HUVEC, Data2 [5]: 102.34; Cell viability, HUVEC, Data3 [5]: 110.16 |
| FEGPE [TaPep62] | 100.16 | 97.95 | 102.21 | 100.32 | 104.06 | 108.32 | 92.35 | 111.51 | 106.55 | 112.26 | 103.59 | 103.79 | 1.43 | -4.77 | 7.43 | 3.70 | -2.87 | 11.86 | -20.91 | 8.50 | Sweet ([4]; sensor GL1, peptide 0.1 mg/mL): 6.38; Sweet ([4]; sensor GL1, peptide 1 mg/mL): -4.13; Average cell viability, HUVEC [5]: 108.97; Cell viability, HUVEC, Data1 [5]: 109.69; Cell viability, HUVEC, Data2 [5]: 105.38; Cell viability, HUVEC, Data3 [5]: 111.84 |
| EQGEQN [TaPep15] | 92.65 | 98.80 | 86.59 | 92.56 | 101.30 | 84.06 | 112.61 | 107.22 | 103.09 | 105.68 | 95.51 | 108.08 | 3.17 | -3.63 | 6.27 | 4.11 | -7.15 | 8.97 | -23.91 | 2.97 | Sweet ([4]; sensor GL1, peptide 0.1 mg/mL): 9.72; Sweet ([4]; sensor GL1, peptide 1 mg/mL): -3.92; Average cell viability, HUVEC [5]: 100.56; Cell viability, HUVEC, Data1 [5]: 103.30; Cell viability, HUVEC, Data2 [5]: 104.26; Cell viability, HUVEC, Data3 [5]: 94.12 |
| ILEEQ [TaPep29] | 100.41 | 100.88 | 96.44 | 103.91 | 96.81 | 101.03 | 96.44 | 92.95 | 114.56 | 114.56 | 111.96 | 117.15 | 1.81 | -4.08 | 7.69 | 3.20 | -3.61 | 10.60 | -20.79 | 9.53 | Sweet ([4]; sensor GL1, peptide 0.1 mg/mL): 7.74; Sweet ([4]; sensor GL1, peptide 1 mg/mL): -5.49; Average cell viability, HUVEC [5]: 98.96; Cell viability, HUVEC, Data1 [5]: 93.24; Cell viability, HUVEC, Data2 [5]: 109.93; Cell viability, HUVEC, Data3 [5]: 93.72 |
| KTYSA [TaPep49] | 96.97 | 99.94 | 94.54 | 96.44 | 94.58 | 82.96 | 86.76 | 114.01 | 100.60 | 99.20 | 96.41 | 106.18 | 0.96 | -3.34 | 7.26 | 2.53 | -7.10 | 8.30 | -15.59 | 11.00 | Sweet ([4]; sensor GL1, peptide 0.1 mg/mL): 7.69; Sweet ([4]; sensor GL1, peptide 1 mg/mL): -3.73; Average cell viability, HUVEC [5]: 102.29; Cell viability, HUVEC, Data1 [5]: 99.15; Cell viability, HUVEC, Data2 [5]: 103.94; Cell viability, HUVEC, Data3 [5]: 103.78 |
| SKKEV [TaPep65] | 97.48 | 94.54 | 99.27 | 98.61 | 94.98 | 94.04 | 105.12 | 85.76 | 100.70 | 99.80 | 89.83 | 112.46 | 1.85 | -4.04 | 7.27 | 4.02 | -3.95 | 10.48 | -17.33 | 11.34 | Sweet ([4]; sensor GL1, peptide 0.1 mg/mL): 2.66; Sweet ([4]; sensor GL1, peptide 1 mg/mL): -3.79; Average cell viability, HUVEC [5]: 96.89; Cell viability, HUVEC, Data1 [5]: 105.14; Cell viability, HUVEC, Data2 [5]: 94.76; Cell viability, HUVEC, Data3 [5]: 90.77 |
